Results reported in PubChem BioAssay (NCI).
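Cells were grown in 96-well plates and exposed to each compound for 48 hours at five concentrations; endpoints were interpolated linearly between bracketing concentrations, or set to the highest concentration if not reached. TGI: concentration producing complete growth inhibition.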

How the values were obtained:
Experiment in all cases: NCI tumour cell line growth inhibition, 48 h
HCT-116 colon = tested on: HCT-116 colon
RXF 393 renal = tested on: RXF 393 renal
SN12C renal = tested on: SN12C renal
RPMI-8226 leukemia = tested on: RPMI-8226 leukemia
SNB-75 CNS = tested on: SNB-75 CNS
EKVX NSCLC = tested on: EKVX NSCLC
OVCAR-4 ovarian = tested on: OVCAR-4 ovarian
KM12 colon = tested on: KM12 colon
HCC-2998 colon = tested on: HCC-2998 colon
COLO 205 colon = tested on: COLO 205 colon
NCI-H522 lung = tested on: NCI-H522 lung
SNB-19 CNS = tested on: SNB-19 CNS
DLD-1 colon = tested on: DLD-1 colon
SK-OV-3 ovarian = tested on: SK-OV-3 ovarian
HL-60(TB) leukemia = tested on: HL-60(TB) leukemia
DMS 273 small cell lung = tested on: DMS 273 small cell lung
XF 498 CNS = tested on: XF 498 CNS
MOLT-4 leukemia = tested on: MOLT-4 leukemia
DMS 114 small cell lung = tested on: DMS 114 small cell lung
U251 CNS = tested on: U251 CNS
LXFL 529 NSCLC = tested on: LXFL 529 NSCLC
SF-295 CNS = tested on: SF-295 CNS
TK-10 renal = tested on: TK-10 renal
NCI-H460 lung = tested on: NCI-H460 lung
IGROV1 ovarian = tested on: IGROV1 ovarian
SF-268 CNS = tested on: SF-268 CNS
SK-MEL-28 melanoma = tested on: SK-MEL-28 melanoma
786-0 renal = tested on: 786-0 renal
NCI-H23 lung = tested on: NCI-H23 lung
NCI-H226 lung = tested on: NCI-H226 lung
HT29 colon = tested on: HT29 colon
M19-MEL melanoma = tested on: M19-MEL melanoma
OVCAR-3 ovarian = tested on: OVCAR-3 ovarian
SNB-78 CNS = tested on: SNB-78 CNS
KM20L2 colon = tested on: KM20L2 colon
HOP-62 NSCLC = tested on: HOP-62 NSCLC
HOP-18 NSCLC = tested on: HOP-18 NSCLC
SK-MEL-5 melanoma = tested on: SK-MEL-5 melanoma
M14 melanoma = tested on: M14 melanoma
CCRF-CEM leukemia = tested on: CCRF-CEM leukemia
OVCAR-8 ovarian = tested on: OVCAR-8 ovarian
SF-539 CNS = tested on: SF-539 CNS
SW-620 colon = tested on: SW-620 colon
UACC-62 melanoma = tested on: UACC-62 melanoma
LOX IMVI melanoma = tested on: LOX IMVI melanoma
A549 NSCLC = tested on: A549 NSCLC
K-562 leukemia = tested on: K-562 leukemia
ACHN renal = tested on: ACHN renal
MALME-3M melanoma = tested on: MALME-3M melanoma
UACC-257 melanoma = tested on: UACC-257 melanoma
HOP-92 NSCLC = tested on: HOP-92 NSCLC
A498 renal = tested on: A498 renal
RXF-631 renal = tested on: RXF-631 renal
SK-MEL-2 melanoma = tested on: SK-MEL-2 melanoma
OVCAR-5 ovarian = tested on: OVCAR-5 ovarian
HCT-15 colon = tested on: HCT-15 colon
CAKI-1 renal = tested on: CAKI-1 renal
UO-31 renal = tested on: UO-31 renal
SR leukemia = tested on: SR leukemia

## Cc1ccc(C2=CC(=O)c3ccccc3C2=O)n1-c1ccccc1
HCT-116 colon
  TGI: > 100 µM
RXF 393 renal
  TGI: > 100 µM
SN12C renal
  TGI: > 100 µM
RPMI-8226 leukemia
  TGI: > 100 µM
SNB-75 CNS
  TGI: > 100 µM
EKVX NSCLC
  TGI: > 100 µM
OVCAR-4 ovarian
  TGI: 96.6 µM
KM12 colon
  TGI: > 100 µM
HCC-2998 colon
  TGI: > 100 µM
COLO 205 colon
  TGI: > 100 µM
NCI-H522 lung
  TGI: > 100 µM
SNB-19 CNS
  TGI: > 100 µM
DLD-1 colon
  TGI: > 100 µM
SK-OV-3 ovarian
  TGI: > 100 µM
HL-60(TB) leukemia
  TGI: 94.2 µM
DMS 273 small cell lung
  TGI: > 100 µM
XF 498 CNS
  TGI: > 100 µM
MOLT-4 leukemia
  TGI: 98.5 µM
DMS 114 small cell lung
  TGI: 55.2 µM
U251 CNS
  TGI: > 100 µM
LXFL 529 NSCLC
  TGI: > 100 µM
SF-295 CNS
  TGI: > 100 µM
TK-10 renal
  TGI: > 100 µM
NCI-H460 lung
  TGI: > 100 µM
IGROV1 ovarian
  TGI: > 100 µM
SF-268 CNS
  TGI: > 100 µM
SK-MEL-28 melanoma
  TGI: > 100 µM
786-0 renal
  TGI: > 100 µM
NCI-H23 lung
  TGI: > 100 µM
NCI-H226 lung
  TGI: 84.8 µM
HT29 colon
  TGI: > 100 µM
M19-MEL melanoma
  TGI: > 100 µM
OVCAR-3 ovarian
  TGI: > 100 µM
SNB-78 CNS
  TGI: > 100 µM
KM20L2 colon
  TGI: > 100 µM
HOP-62 NSCLC
  TGI: > 100 µM
HOP-18 NSCLC
  TGI: > 100 µM
SK-MEL-5 melanoma
  TGI: > 100 µM
M14 melanoma
  TGI: > 100 µM
CCRF-CEM leukemia
  TGI: 84.5 µM
OVCAR-8 ovarian
  TGI: > 100 µM
SF-539 CNS
  TGI: > 100 µM
SW-620 colon
  TGI: > 100 µM
UACC-62 melanoma
  TGI: > 100 µM
LOX IMVI melanoma
  TGI: > 100 µM
A549 NSCLC
  TGI: > 100 µM
K-562 leukemia
  TGI: > 100 µM

## N/N=C(/Cc1ccccc1)NNO
HCT-116 colon
  TGI: > 100 µM
RXF 393 renal
  TGI: > 100 µM
SNB-75 CNS
  TGI: > 100 µM
EKVX NSCLC
  TGI: > 100 µM
OVCAR-4 ovarian
  TGI: > 100 µM
KM12 colon
  TGI: 34.9 µM
HCC-2998 colon
  TGI: > 100 µM
COLO 205 colon
  TGI: > 100 µM
SNB-19 CNS
  TGI: > 100 µM
ACHN renal
  TGI: > 100 µM
DLD-1 colon
  TGI: > 100 µM
HL-60(TB) leukemia
  TGI: > 100 µM
DMS 273 small cell lung
  TGI: > 100 µM
MALME-3M melanoma
  TGI: > 100 µM
MOLT-4 leukemia
  TGI: > 100 µM
DMS 114 small cell lung
  TGI: > 100 µM
LXFL 529 NSCLC
  TGI: > 100 µM
SF-295 CNS
  TGI: > 100 µM
TK-10 renal
  TGI: > 100 µM
NCI-H460 lung
  TGI: > 100 µM
IGROV1 ovarian
  TGI: > 100 µM
UACC-257 melanoma
  TGI: > 100 µM
SF-268 CNS
  TGI: > 100 µM
HOP-92 NSCLC
  TGI: > 100 µM
SK-MEL-28 melanoma
  TGI: > 100 µM
786-0 renal
  TGI: > 100 µM
NCI-H23 lung
  TGI: > 100 µM
NCI-H226 lung
  TGI: > 100 µM
A498 renal
  TGI: > 100 µM
HT29 colon
  TGI: > 100 µM
RXF-631 renal
  TGI: > 100 µM
M19-MEL melanoma
  TGI: > 100 µM
OVCAR-3 ovarian
  TGI: > 100 µM
SK-MEL-2 melanoma
  TGI: > 100 µM
KM20L2 colon
  TGI: > 100 µM
HOP-18 NSCLC
  TGI: > 100 µM
SK-MEL-5 melanoma
  TGI: > 100 µM
M14 melanoma
  TGI: > 100 µM
OVCAR-5 ovarian
  TGI: > 100 µM
CCRF-CEM leukemia
  TGI: > 100 µM
SF-539 CNS
  TGI: > 100 µM
SW-620 colon
  TGI: > 100 µM
UACC-62 melanoma
  TGI: > 100 µM
LOX IMVI melanoma
  TGI: > 100 µM
A549 NSCLC
  TGI: > 100 µM
HCT-15 colon
  TGI: > 100 µM
K-562 leukemia
  TGI: > 100 µM
CAKI-1 renal
  TGI: > 100 µM

## COC1(OC)C2(Cl)C3=CCCC=C3C1(Cl)C(Cl)=C2Cl
HCT-116 colon
  TGI: 43.9 µM
RXF 393 renal
  TGI: 47.8 µM
SN12C renal
  TGI: > 100 µM
RPMI-8226 leukemia
  TGI: 34 µM
SNB-75 CNS
  TGI: > 100 µM
UO-31 renal
  TGI: 69 µM
EKVX NSCLC
  TGI: 71.5 µM
OVCAR-4 ovarian
  TGI: > 100 µM
KM12 colon
  TGI: > 100 µM
HCC-2998 colon
  TGI: > 100 µM
COLO 205 colon
  TGI: 37.7 µM
NCI-H522 lung
  TGI: 33 µM
SNB-19 CNS
  TGI: > 100 µM
ACHN renal
  TGI: > 100 µM
DLD-1 colon
  TGI: > 100 µM
SK-OV-3 ovarian
  TGI: 72.6 µM
HL-60(TB) leukemia
  TGI: 33.2 µM
DMS 273 small cell lung
  TGI: 39.8 µM
MALME-3M melanoma
  TGI: 49.2 µM
XF 498 CNS
  TGI: 50.2 µM
MOLT-4 leukemia
  TGI: 76.9 µM
DMS 114 small cell lung
  TGI: 49.9 µM
U251 CNS
  TGI: 82.1 µM
LXFL 529 NSCLC
  TGI: > 100 µM
SF-295 CNS
  TGI: 74.2 µM
TK-10 renal
  TGI: > 100 µM
NCI-H460 lung
  TGI: > 100 µM
IGROV1 ovarian
  TGI: > 100 µM
UACC-257 melanoma
  TGI: 75.1 µM
SF-268 CNS
  TGI: > 100 µM
HOP-92 NSCLC
  TGI: 70.1 µM
SK-MEL-28 melanoma
  TGI: > 100 µM
786-0 renal
  TGI: > 100 µM
NCI-H23 lung
  TGI: 62.2 µM
NCI-H226 lung
  TGI: 82.4 µM
HT29 colon
  TGI: 84.3 µM
RXF-631 renal
  TGI: 30.3 µM
M19-MEL melanoma
  TGI: 47.4 µM
OVCAR-3 ovarian
  TGI: 43.8 µM
SNB-78 CNS
  TGI: > 100 µM
SK-MEL-2 melanoma
  TGI: 36 µM
KM20L2 colon
  TGI: 60.4 µM
SR leukemia
  TGI: 53.5 µM
HOP-62 NSCLC
  TGI: 71.1 µM
SK-MEL-5 melanoma
  TGI: 29.2 µM
M14 melanoma
  TGI: 31.4 µM
OVCAR-5 ovarian
  TGI: 83.9 µM
CCRF-CEM leukemia
  TGI: 42.4 µM
OVCAR-8 ovarian
  TGI: > 100 µM
SF-539 CNS
  TGI: > 100 µM
SW-620 colon
  TGI: 36.9 µM
UACC-62 melanoma
  TGI: > 100 µM
LOX IMVI melanoma
  TGI: 30.2 µM
A549 NSCLC
  TGI: > 100 µM
HCT-15 colon
  TGI: > 100 µM
CAKI-1 renal
  TGI: 84.2 µM
